Data published in PMC10721786, “Development of a potent benzonitrile-based inhibitor of glutaminyl-peptide cyclotransferase-like protein (QPCTL) with antitumor efficacy” (Signal Transduction and Targeted Therapy, 2023).

Experiments:
[1] = system: B16F10 cells; assay: Tumor challenge: B16F10 tumors in C57BL/6 mice; type: in vivo; conditions: B16F10 in C57BL/6 mice, anti-CD3 antibody 200 µg/mouse, QP5038 25 mg/kg daily
Description: C57BL/6 mice were obtained from Shanghai Slaccas Laboratory Animal Co., Ltd.. Male mice were implanted subcutaneously with 1 x 10^^6 B16F10 cells resuspended in 100μL of DMEM on Day 0. Anti-PD-1 (Clone RMP1-14, BioXCell, Cat. # BE0146) or mouse IgG2a isotype control (Clone 2A3, BioXCell, Cat. # BE0089) was dosed at 80 µg per mouse intraperitoneally starting on day 12 after tumor implantation, followed by a once-a-week regimen. QPCTL inhibitor was intraperitoneally administered at 25 mg/kg once a day. Tumors were measured daily, and mice were sacrificed 24 days after tumor challenge. Tumor volumes were measured in two dimensions (length and width) and the volume was calculated using the formula, tumor size (mm^3) = (length × width^2) × 0.5.
Briefly, male mice were implanted subcutaneously with 5 x 10^5 B16F10 cells resuspended in 100 μL of DMEM on Day 0. Anti-PD-1 antibody or mouse IgG2a isotype control was dosed at 80 µg per mouse intraperitoneally starting on day 6 after tumor implantation, followed by a once-a-week regimen. QPCTL inhibitors was intraperitoneally administered at 25 mg/kg once a day since day 6. Tumors were measured every three days, and mice were sacrificed on day 15. […]
Tumor challenge with T cell depletion. […] Animal weights and tumor volumes were measured twice weekly throughout the study. […] Data were acquired on flow cytometry analyzer and analyzed using Flowjo software.

[2] = system: senescent cells; assay: Efferocytosis of apoptotic Jurkat cells by macrophages after co-culture with senescent cells; type: cell-based, mouse; conditions: pretreatment, 4 days, Fig. S7
Description: Apoptotic corpse generation. Jurkat cells were cultured in a T25 flask and apoptotic corpses were inducted by exposure to 5 μM camptothecin (Tsbiochem, CAT. # t2764) for 4 hours. Apoptosis induction was confirmed by apoptoic kit (Beyotime Biotechnology, Cat. # C1062M) through flow cytometry.
Senescence induction. B16F10 Cells were plated (96-well plate: 2000 cells/well) and rested over night before exposure to 10 μM cisplatin (APExBIO, Cat. # A8321). Cisplatin exposed cells were subsequently cultured for 4 or 7 days (without media change) and senescent cells were evaluated by β-Galactosidase staining using a SA-β-Gal staining Kit (Solarbio, Cat. # G1580-100T) according to the manufacturer’s instructions. Senescent cells were identified as blue stained cells under light microscopy.
Efferocytosis after co-culture. Senescent cells were plated in 96-well plates (2000 cells/well) and inducted as described before. QPCTL inhibitors were added every other day to the cells. For co-culture conditions BMDMs were added to the senescent cells. Senescent cells and macrophages were co-cultured for 16 hours. […] Following removal of unbound corpses by washing three times with PBS, macrophages were marked with APC-labeled anti-F4/80, and the co-culture was analyzed by flow cytometry. Efferocytosis was calculated as the percentage of CFSE^+F4/80^+ cells among F4/80^+ cells.

[3] = system: CD47; assay: Overall cell surface CD47 (hCD47-B6H12 binding) in HEK293T and Raji cells; type: cell-based, human; conditions: 100 nM, 48 h
Description: Binding to cell surface CD47 was assessed by staining cells with fluorochrome-labeled antibodies clone CC2C6 (BioLegend, Cat. # 323102) and B6H12 (Abcam, Cat. # ab134485) to human CD47 at a dilution of 1:100 in PBS containing 1% FBS (FACS buffer) for 30 min on ice, while protected from light. SIRPα binding to CD47 was assessed by incubating cells with PE labeled recombinant human SIRPα/ CD172α Protein, Fc tag (ACRO Biosystems, Cat. # SIA-HP252) or PE labeled mouse SIRPα Protein, His tag (ACRO Biosystems, Cat. # SIA-MP2H6) for 1 hour on ice, while protected from light.

## Cn1cncc1C1CCN(c2c(C#N)cccc2-c2ccc(F)nc2)CC1 [QP5038]
[1]
  enhancement of anti-PD-1 antibody-mediated tumor inhibition under T cell depletion: blocked the enhancement
[2]
  inhibitory effect of senescent cells on macrophage-mediated phagocytosis of apoptotic cells: could block the inhibitory effect
[3]
  overall cell surface levels of CD47: did not alter
